Reference: patent US20220241236A1, “DIETARY BUTYRATE AND ITS USES” (SOCIETE DES PRODUITS NESTLE S.A., priority 2019, published 2022)
Entries after “also recorded” stand apart in the source; their conditions may differ.

Columns and labels:
[1] = target: T1, porcine pancreatic lipase (from pancreatin) (Sus scrofa, UniProt P00591); experiment: In vitro lipolysis in simulated intestinal fluid (SIF model), pH-stat; assay type: in vitro ADME; settings: SIF alone; emulsion with 200 mg fat; pH 6.8, 37° C.
T1 construct: pancreatin (Porcine, USP×8, P7585); purchased Sigma-Aldrich P7585; host or cells: porcine pancreas extract (pancreatin)
T1 sequence (P00591 1-450): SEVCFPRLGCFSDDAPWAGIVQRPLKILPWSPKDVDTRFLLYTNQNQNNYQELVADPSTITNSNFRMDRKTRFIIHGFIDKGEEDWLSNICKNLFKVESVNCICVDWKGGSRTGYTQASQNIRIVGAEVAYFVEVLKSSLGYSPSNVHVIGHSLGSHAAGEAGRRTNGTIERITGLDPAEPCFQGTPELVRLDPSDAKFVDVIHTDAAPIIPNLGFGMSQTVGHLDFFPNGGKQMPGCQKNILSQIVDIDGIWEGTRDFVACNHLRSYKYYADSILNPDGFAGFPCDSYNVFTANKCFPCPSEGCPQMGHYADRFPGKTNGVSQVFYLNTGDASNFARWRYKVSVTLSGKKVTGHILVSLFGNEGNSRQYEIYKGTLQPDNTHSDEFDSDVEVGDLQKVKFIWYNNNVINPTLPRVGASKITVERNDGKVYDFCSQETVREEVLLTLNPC
T1 sequence (P02703 23-112 partner): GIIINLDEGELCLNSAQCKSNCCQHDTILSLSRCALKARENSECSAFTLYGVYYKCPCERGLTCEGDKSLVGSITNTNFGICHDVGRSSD
Description: (§1) 10 wt % oil in water emulsions stabilised by 0.3 wt % polyoxyethylene sorbitan mono-oleate (Tween® 80) were prepared by mixing the Tween 80 into the oil phase at 40° C., then mixing with the water phase using a magnetic stirrer. An emulsion was then created using a Hielscher UP 400S ultrasonic probe homogeniser equipped with a 5 mm diameter rod-like probe by applying 100% amplitude at 100% cycle for 2 minutes whilst the sample was cooled using ice water.
(§2) The lipid emulsion (2 mL) containing 200 mg of fat was subjected to gastrointestinal in vitro lipolysis. […] For gastric digestion, the sample was incubated for 90 minutes with 8.5 mL of simulated gastric fluid (SGF), which consisted of 150 mM NaCl, 450 U/mL pepsin, 18 U/mL rabbit gastric lipase at 37° C. and a pH of 5.5.
The intestinal digestion step was performed in the pH stat where the pH was kept constant at 6.8 by addition of NaOH (0.05 M). […] The intestinal digestion step starts when the temperature reaches 37±0.5° C. The pH was adjusted to pH 6.8 and after incubation of two minutes at this pH and temperature, a pancreatin solution (5 mM tris, 150 mM NaCl at pH 6.8) was added. […] During the intestinal phase of digestion, the kinetics of digestion were followed using a pH-stat (TIM856, Radiometer) technique and expressed as titratable acid (rather than fatty acid) that was calculated by the equation: […]

[2] = tested on: rabbit gastric lipase (RGL) followed by porcine pancreatic lipase (PPL); experiment: Sequential in vitro digestion SGF (RGL) followed by SIF (PPL), pH-stat; assay type: in vitro ADME
Description: as §1, §2
The intestinal digestion step was performed in the pH stat where the pH was kept constant at 6.8 by addition of NaOH (0.05 M). […] The intestinal digestion step starts when the temperature reaches 37±0.5° C. The pH was adjusted to pH 6.8 and after incubation of two minutes at this pH and temperature, a pancreatin solution (5 mM tris, 150 mM NaCl at pH 6.8) was added. The final composition of the intestinal fluid was 10 mM CaCl2, 12 mM mixed bile salts, 0.75 mM phospholipid, 150 mM NaCl and 4 mM tris(hydroxymethyl)aminomethane buffer. The intestinal digestion step was carried out for 3 hours in a titration manager from Radiometer. During the intestinal phase of digestion, the kinetics of digestion were followed using a pH-stat (TIM856, Radiometer) technique and expressed as titratable acid (rather than fatty acid) that was calculated by the equation:
TA: Total titratable acid released, mmol; VNaoH: volume of NaOH used to titrate the released acid in 3 h, mL.

Compound: CCCC(=O)OCC(COC(=O)CCC)OC(=O)CCC [tributyrin]
- initial rate of lipolysis [1]: 223 ± 59 µmol/min
- initial lipolysis rate in SIF ([2]; SGF-SIF sequential digestion (after pre-exposure to RGL)): 44.1 ± 8.8 µmol/min
- extent of gastric lipolysis / hydrolysis in the stomach ([2]; gastric compartment of the model): considerable digestion; also recorded: extensive hydrolysis in the stomach
- lipolysis by gastric lipase ([2]; indicated by decreased total fatty acid release in SIF after RGL pre-exposure): ~60%
